Assay results published in ChEMBL document CHEMBL1145231, “2-Alkoxydihydrocinnamates as PPAR agonists. Activity modulation by the incorporation of phenoxy substituents” (Bioorg Med Chem Lett, 2005).

Legend:
[1] = biological target: T1, Peroxisome proliferator-activated receptor delta (Homo sapiens, UniProt Q03181)
T1 sequence (Q03181 whole entry): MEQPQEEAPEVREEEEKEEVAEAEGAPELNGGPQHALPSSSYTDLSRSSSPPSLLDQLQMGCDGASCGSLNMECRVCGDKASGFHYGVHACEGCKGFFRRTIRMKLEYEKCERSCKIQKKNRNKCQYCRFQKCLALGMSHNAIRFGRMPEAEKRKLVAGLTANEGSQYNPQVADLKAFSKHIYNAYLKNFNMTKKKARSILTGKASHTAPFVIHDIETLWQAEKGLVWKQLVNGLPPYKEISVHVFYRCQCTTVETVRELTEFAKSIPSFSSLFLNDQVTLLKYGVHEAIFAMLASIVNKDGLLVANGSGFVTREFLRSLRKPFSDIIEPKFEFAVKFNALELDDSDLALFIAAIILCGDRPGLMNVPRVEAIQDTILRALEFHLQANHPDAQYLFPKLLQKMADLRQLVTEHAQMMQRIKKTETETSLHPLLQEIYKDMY

[2] = biological target: T2, Peroxisome proliferator-activated receptor alpha (Homo sapiens, UniProt Q07869)
T2 sequence (Q07869 whole entry): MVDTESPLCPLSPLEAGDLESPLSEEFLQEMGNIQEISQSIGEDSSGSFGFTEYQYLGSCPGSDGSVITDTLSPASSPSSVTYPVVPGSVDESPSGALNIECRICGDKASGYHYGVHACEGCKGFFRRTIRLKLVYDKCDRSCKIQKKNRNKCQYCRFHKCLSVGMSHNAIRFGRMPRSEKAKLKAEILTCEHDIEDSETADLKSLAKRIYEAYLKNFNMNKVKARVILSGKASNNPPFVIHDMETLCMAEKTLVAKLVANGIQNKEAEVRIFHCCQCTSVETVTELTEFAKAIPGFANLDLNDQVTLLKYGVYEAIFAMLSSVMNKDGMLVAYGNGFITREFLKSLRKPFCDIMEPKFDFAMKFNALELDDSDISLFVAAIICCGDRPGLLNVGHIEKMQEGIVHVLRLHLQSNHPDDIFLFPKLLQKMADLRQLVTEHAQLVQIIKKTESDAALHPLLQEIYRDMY

[3] = biological target: T2, Peroxisome proliferator-activated receptor alpha; remark: listed apart in the source
[4] = species: Rattus norvegicus; test: animal or person; type: functional

Row | SMILES | IC50 [1] [nM] | IC50 [2] [nM] | EC50 [3] [nM] | ED50 [4] [mg/kg]
1 | COc1cc(C[C@H](OC)C(=O)O)ccc1OCCCOc1ccc(Oc2ccccc2)cc1 | 7500 | 1350 | 2150 | 0.12
2 | CO[C@@H](Cc1ccc(OCCCOc2ccc(C(=O)c3ccccc3)cc2)c(Cl)c1)C(=O)O | 1510 | 309 | 2710 | 0.29
3 | CO[C@@H](Cc1ccc(C#CCCOc2ccc(Oc3ccccc3)cc2)cc1)C(=O)O | 3940 | 1150 | 1880 | 0.08
4 | CO[C@@H](Cc1ccc(C#CCCCOc2ccc(Oc3ccccc3)cc2)cc1)C(=O)O | 4120 | 770 | 2620 | 0.07
5 | CO[C@@H](Cc1ccc(OCCCOc2ccc(-c3ccccc3)cc2)cc1)C(=O)O | 1390 | 568 | 1100 | 1.5
6 | CCO[C@@H](Cc1ccc(OCCCOc2ccc(Oc3ccccc3)cc2)cc1)C(=O)O | 1570 | 1690 | 2750 | 0.015
7 | CO[C@@H](Cc1ccc(OCCCOc2ccc(C(=O)c3ccccc3)cc2)cc1)C(=O)O | 2320 | 470 | 2870 | 0.18
8 | CC(C)(Oc1ccc(C(=O)c2ccc(Cl)cc2)cc1)C(=O)O [FENOFIBRIC ACID] | – | > 10000 | > 10000 | –
9 | CO[C@@H](Cc1ccc(OCCCOc2ccc(Oc3ccccc3)cc2)cc1)C(=O)O [NAVEGLITAZAR] | 1920 | 2710 | 2820 | 0.1
